From patent US20040224981A1, “Antibacterial methods and compositions” (priority 2003, published 2004) come the findings set out here.

Like-named read-outs stand apart in the source and are kept apart here. A value given as a limit tells only on which side of the number the result lay.

The subject of one assay is S. aureus. The assay can be described thus: MIC against S. aureus strains and clinical isolates (broth microdilution). The class given is cell-based, Staphylococcus aureus. Conditions: for MIC90: all S. aureus strains of Table 1; for MIC Range: all S. aureus strains of Table 1 (mupirocin-susceptible and -resistant). On the procedure: were tested against a collection of clinical isolates of S. aureus including strains that were multi-resistant to mupirocin and to other agents such as gentamicin and oxacillin.
The acetate and mupirocin salts of the MRS inhibitor compound 5 were tested against a collection of both low and high-level mupirocin resistant clinical isolates of S. aureus (Table 6).
The bacterial strains were tested for susceptibility to mupirocin and MRSi compound 2 using the broth microdilution method in accordance with NCCLS guideline to determine their MICs.
Briefly, the MIC and checkerboard titration assays were performed with strains in microtiter trays with cation-supplemented Mueller-Hinton broth (Difco). Inocula were prepared by suspending growth from blood agar plates in sterile saline to a density equivalent to that of a 0.5 McFarland standard and were diluted […] to produce a final inoculum of 5×10^5 CFU/ml. The trays were incubated aerobically overnight. Standard quality control strains were included with each run. Fractional inhibitory concentrations (FICs) were calculated as the MIC of drug A or B in combination/MIC of drug A or B alone, and the FIC index was obtained by adding the two FICs. FIC indices were interpreted as synergistic if the values were ≦0.5, additive or indifferent if the values were >0.5 to 4, and antagonistic if the values were >4.0.
On the technique in general: Broth dilution looks for growth in wells or tubes with falling amounts of substance.

Another assay deals with E. faecalis. Description: MIC against E. faecalis. In kind it is cell-based. On the procedure:
(§1) The MRS inhibitor 4 alone and in combination with mupirocin (mupirocin salt and 1:1 combination) were tested against a collection of Gram-positive pathogens.
(§2) MRSi compound 5 alone and in combination with mupirocin was tested recent clinical isolates of E. faecalis (n=28) and E. faecium (n=23). Both the acetate salt and mupirocinate salts of MRSi compound 5 maintained potent activity against vancomycin-susceptible and—resistant enterococci (Tables 8, 9, and 10).

The next assay deals with S. pyogenes. Description: MIC against S. pyogenes. The class given is cell-based, Streptococcus pyogenes. Conditions: Table 2. On the procedure:
as §1
S. pyogenes is also a significant skin pathogen and 48 recent clinical isolates were tested for their susceptibility to MRSi compound 5 alone (acetate) and in combination (1:1) with mupirocin (mupirocinate).

The next assay has as its system S. epidermidis. The assay can be described thus: MIC against S. epidermidis. The class given is cell-based. Conditions: Table 2. On the procedure:
as §1
(§3) The MRS inhibitor 8 was also prepared as a fusidate and mupirocinate salt and tested for antibacterial activity against Gram-positive bacteria (Table 3). […] MRSi compound 8 alone and the fusidate and mupirocin salts were active against mupirocin-resistant S. aureus and S. epidermidis and organisms such as E. faecalis that are not susceptible to mupirocin.
(§4) The MRS inhibitor 5 acetate and mupirocin salts were tested against a collection of Gram-positive bacteria.

The subject of another assay is S. hemolyticus. The assay can be described thus: MIC against S. hemolyticus. Conditions: Table 2. In kind it is cell-based. On the procedure: as §1, §3, §4
A further assay relates to E. faecium. Description: MIC against E. faecium. In kind it is cell-based. Conditions: Table 8, E. faecium ATCC 33667. On the procedure:
as §2

The term MIC denotes the least concentration at which growth counts as inhibited.

On to `Cc1c(CNCCCNc2cc(=O)c3ccccc3[nH]2)sc(Br)c1Br` [MRSI Cmpd 4 acetate, N-(4,5-Dibromo-3-methylthiophen-2-ylmethyl)-N′-(1H-quinolin-4-one)propane-1,3-diamine], for which the minimal inhibitory concentration (MIC) in the assay on S. aureus (Staphylococcus aureus, ATCC29213, Table 2, S. aureus ATCC 29213, read-out: MIC) is 0.25 µg/mL; in the assay with S. aureus (Staphylococcus aureus, ATCC43300, Table 2, S. aureus ATCC 43300 (ORSA), read-out: MIC), 0.25 µg/mL; in the assay with S. aureus (Staphylococcus aureus, NRS107, Table 2, S. aureus NRS107 (mupA), read-out: MIC), 0.03 µg/mL; in the assay on S. aureus (Staphylococcus aureus, Table 2, S. aureus Oxford, read-out: MIC) it was 0.03 µg/mL; in the assay with E. faecalis (Enterococcus faecalis, ATCC29212, Table 2, E. faecalis ATCC 29212, read-out: MIC), at most 0.008 µg/mL; with E. faecalis (Enterococcus faecalis, Table 2, E. faecalis 1, read-out: MIC) it was 0.015 µg/mL. Besides, the MIC was at most 0.008 µg/mL in the assay on E. faecalis (Enterococcus faecalis, Table 2, E. faecalis 7, read-out: MIC); 0.25 µg/mL in the assay with S. pyogenes (Streptococcus pyogenes, ATCC19615, S. pyogenes ATCC 19615, read-out: MIC); 0.12 µg/mL in the assay on S. pyogenes (Streptococcus pyogenes, S. pyogenes MB143 (macrolide rest.), read-out: MIC); 0.5 µg/mL in the assay with S. epidermidis (Staphylococcus epidermidis, S. epidermidis NRS6, read-out: MIC); 0.03 µg/mL in the assay on S. epidermidis (Staphylococcus epidermidis, S. epidermidis NRS7, read-out: MIC); 0.25 µg/mL in the assay on S. epidermidis (Staphylococcus epidermidis, S. epidermidis NRS8, read-out: MIC). The MIC with S. hemolyticus (S. hemolyticus NRS50, read-out: MIC) came out at 0.25 µg/mL; with S. hemolyticus (S. hemolyticus NRS116, read-out: MIC) it was 0.5 µg/mL.

As for `CC(=CC(=O)OCCCCCCCCC(=O)O)CC1OCC(CC2OC2C(C)C(C)O)C(O)C1O.Cc1c(CNCCCNc2cc(=O)c3ccccc3[nH]2)sc(Br)c1Br` (stereo not shown) [MRSi Cmpd 4 mupirocinate, N-(4,5-DIBROMO-3-METHYLTHIOPHEN-2-YLMETHYL)-N′-(1H-QUINOLIN-4-ONE)PROPANE-1,3-DIAMINE MUPIROCINATE], the MIC in the assay with S. aureus (Table 2, S. aureus ATCC 29213) was 0.5 µg/mL; in the assay with S. aureus (Table 2, S. aureus ATCC 43300 (ORSA)), 0.5 µg/mL; with S. aureus (Table 2, S. aureus NRS107 (mupA)), 0.25 µg/mL; in the assay with S. aureus (Table 2, S. aureus Oxford) it was 0.25 µg/mL; with E. faecalis (Table 2, E. faecalis 1), 0.12 µg/mL; with E. faecalis (Table 2, E. faecalis 7), 0.12 µg/mL. Also, the MIC worked out at 0.06 µg/mL with E. faecalis (Table 2, E. faecalis ATCC 29212); 0.25 µg/mL in the assay with S. pyogenes (S. pyogenes ATCC 19615); 0.25 µg/mL in the assay on S. pyogenes (S. pyogenes MB143 (macrolide rest.)); 1 µg/mL in the assay on S. epidermidis (S. epidermidis NRS6); 0.25 µg/mL with S. epidermidis (S. epidermidis NRS7); 1 µg/mL with S. epidermidis (S. epidermidis NRS8). In addition, the MIC in the assay with S. hemolyticus (S. hemolyticus NRS50) and in the assay with S. hemolyticus (S. hemolyticus NRS116) was 0.5 µg/mL each time.

For the compound `O=c1cc(NCCCNC2CCNc3c(Br)cc(Br)cc32)[nH]c2ccccc12` (stereo not shown) [MRSi cmpd 1, 2-[3-(6,8-Dibromo-2,3,4,5-tetrahydroquinolin-4-ylamino)prop-1-ylamino]-1H-quinolin-4-one], the MIC in the assay on S. aureus (S. aureus 10-420 (LL Mup. Rest.)) was 0.12 µg/mL; with S. aureus (S. aureus 14-354 (LL Mup. Rest.)) it was 0.25 µg/mL; in the assay with S. aureus (S. aureus 25-670 (HL Mup. Rest.)) it was 0.12 µg/mL; with S. aureus (S. aureus 31-1334 (LL Mup Rest.)), 0.12 µg/mL; in the assay with S. aureus (S. aureus 36-1298 (LL Mup. Rest.)) it was 0.015 µg/mL; with S. aureus (S. aureus 87-2797 (HL Mup. Rest.)), 0.12 µg/mL. For the same compound, the minimal inhibitory concentration (MIC) was found to be 0.12 µg/mL in the assay with S. aureus (S. aureus 87-2797 (Mup. Susc.)); 0.06 µg/mL in the assay on S. aureus (S. aureus 101-100 (Mup. Susc.)); 0.25 µg/mL in the assay on S. aureus (S. aureus ATCC 43300 (ORSA)); 0.06 µg/mL with S. aureus (S. aureus LZ1 (HL Mup rest.)); 0.12 µg/mL in the assay with S. aureus (S. aureus LZ6 (HL Mup rest.)); 0.06 µg/mL with S. aureus (S. aureus LZ8 (LL Mup. Rest.)). Also, the minimal inhibitory concentration (MIC) in the assay on S. aureus (S. aureus LZ9) was 0.06 µg/mL; in the assay with S. aureus (S. aureus LZ10) it was 0.12 µg/mL; in the assay on S. aureus (S. aureus Miles Hall), 0.12 µg/mL; with S. aureus (S. aureus NRS1 (VISA)), 0.12 µg/mL; in the assay with S. aureus (S. aureus NRS107 (HL Mup rest.)), 0.03 µg/mL; in the assay on S. aureus (S. aureus Oxford) it was 0.12 µg/mL. In addition, the MIC result with E. faecalis (Table 8, E. faecalis 1) is “≦0.004 μg/mL”; in the assay with E. faecalis (Table 8, E. faecalis 7), 0.015 µg/mL; in the assay with E. faecalis (Table 8, E. faecalis ATCC 51299 (VRE)) it was 0.015 µg/mL; in the assay on E. faecium it was “≦0.004 μg/mL”. For the same compound, the “MIC90” value in the assay with S. aureus was 0.25 µg/mL. The “MIC Range” value in the assay on S. aureus fell in the range of 0.015 to 0.12 µg/mL.

Take `O=c1cc(NC[C@H]2CCC[C@@H]2NCc2ccc(Cl)c(Cl)c2)[nH]c2ccccc12` [MRSi cmpd 3, 2-{[(1R, 2S)-2-(3,4-Dichlorobenzylamino)cyclopentylmethyl]amino}-1H-quinolin-4-one]: the minimal inhibitory concentration (MIC) with S. aureus (Staphylococcus aureus, ATCC43300, S. aureus ATCC 43300 (ORSA), read-out: MIC) was 4 µg/mL; in the assay on S. aureus (Staphylococcus aureus, NRS 1 / VISA, S. aureus NRS1 (VISA), read-out: MIC), 4 µg/mL; in the assay with S. aureus (Staphylococcus aureus, NRS107, S. aureus NRS107 (HL Mup rest.), read-out: MIC) it was 1 µg/mL; in the assay on S. aureus (Staphylococcus aureus, S. aureus 10-420 (LL Mup. Rest.), read-out: MIC), 2 µg/mL; in the assay with S. aureus (Staphylococcus aureus, S. aureus 14-354 (LL Mup. Rest.), read-out: MIC), 4 µg/mL; in the assay with S. aureus (Staphylococcus aureus, S. aureus 25-670 (HL Mup. Rest.), read-out: MIC), 4 µg/mL. The minimal inhibitory concentration (MIC) with S. aureus (Staphylococcus aureus, S. aureus 31-1334 (LL Mup Rest.), read-out: MIC) is 2 µg/mL; with S. aureus (Staphylococcus aureus, S. aureus 36-1298 (LL Mup. Rest.), read-out: MIC) it was 1 µg/mL; with S. aureus (Staphylococcus aureus, S. aureus 87-2797 (HL Mup. Rest.), read-out: MIC) it was 4 µg/mL; with S. aureus (Staphylococcus aureus, S. aureus 87-2797 (Mup. Susc.), read-out: MIC), 2 µg/mL; with S. aureus (Staphylococcus aureus, S. aureus 101-100 (Mup. Susc.), read-out: MIC), 2 µg/mL; with S. aureus (Staphylococcus aureus, S. aureus LZ1 (HL Mup rest.), read-out: MIC), 2 µg/mL. Also, the MIC worked out at 2 µg/mL in the assay on S. aureus (Staphylococcus aureus, S. aureus LZ6 (HL Mup rest.), read-out: MIC); 4 µg/mL with S. aureus (Staphylococcus aureus, S. aureus LZ8 (LL Mup. Rest.), read-out: MIC); 2 µg/mL with S. aureus (Staphylococcus aureus, S. aureus LZ9, read-out: MIC); 2 µg/mL with S. aureus (Staphylococcus aureus, S. aureus LZ10, read-out: MIC); 2 µg/mL in the assay with S. aureus (Staphylococcus aureus, S. aureus Miles Hall, read-out: MIC); 2 µg/mL in the assay with S. aureus (Staphylococcus aureus, S. aureus Oxford, read-out: MIC). The minimum inhibitory concentration (MIC) in the assay with E. faecalis (Enterococcus faecalis, ATCC 51299 / VRE, Table 8, E. faecalis ATCC 51299 (VRE), read-out: MIC) was 0.5 µg/mL; in the assay with E. faecalis (Enterococcus faecalis, Table 8, E. faecalis 1, read-out: MIC), 0.12 µg/mL; in the assay with E. faecalis (Enterococcus faecalis, Table 8, E. faecalis 7, read-out: MIC), 0.5 µg/mL; in the assay with E. faecium (Enterococcus faecium, ATCC33667, read-out: MIC) it was 0.03 µg/mL. In addition, the MIC90 in the assay with S. aureus (Staphylococcus aureus, read-out: MIC 90) is 4 µg/mL. Also, the “MIC Range” value in the assay on S. aureus is 1 to 4 µg/mL.
